Results as given in patent US20140243218A1, “COMPOSITION FOR DIAGNOSING OVARIAN CANCER METASTASIS USING CPG METHYLATION STATUS OF GENE PROMOTER AND USE THEREOF” (Ewha University - Industry Collaboration Foundation, priority 2013, published 2014).

Test system: SK-OV-3 cell line
Test: 5-aza-2′-deoxycytidine treatment of SK-OV-3 cell line, gene expression changes by qRT-PCR
Assay type: cell-based, human
Procedure: Human ovarian cancer cell line SK-OV-3 was purchased from American type culture collection (ATCC no. HTB-77) and cultured in a McCoy's 5a medium containing 10% FBS (fetal bovine serum), 100 U/mL penicillin and 100 μg/mL streptomycin.
Total RNAs were extracted from SK-OV-3 cell line and the tumor tissues using an RNeasy mini kit (Qiagen), respectively. The extraction was performed according to manufacturer's instructions. The extracted total RNAs were quantified using a spectrophotometer, and RNA degradation was examined by electrophoresis in a 1% agarose gel.
For cDNA synthesis, Superscript II reverse transcriptase (Invitrogen) was used. 1 μg of total RNA and 50 ng of oligo dT were denatured at 70° C. for 10 minutes, and then mixed with a reaction mixture containing 4 μl of 5×RT buffer, 2 μl of […], 4 μl of 2.5 mM dNTP mixture, 200 units of Superscript II reverse transcriptase and 10 units of RNase inhibitor to prepare 20 μl of the resulting reaction mixture, which was reacted at 25° C. for 10 minutes, at 42° C. for 50 minutes, and at 95° C. for 5 minutes to synthesize cDNA. This cDNA was diluted at 1:4, and 2 μl thereof was used as a template for qRT-PCR. In qRT-PCR, 20 μl of reaction mixture containing 2 μl of cDNA, 10 μl of SYBR Premix EX Taq (Takara Bio), 0.4 μl of Rox reference dye (50×, Takara Bio), and 200 nM of primers of each gene was reacted at 95° C. for 30 seconds, and then repeated for 40 cycles (at 95° C. for 3 seconds, and at 60° C. for 30 seconds) using an ABI 7500fast sequence detection system (Applied Biosystems) for amplification. The PCR products were reacted at 95° C. for 15 seconds, at 60° C. for 1 minute, and at 95° C. for 15 seconds to examine their specificity. 18S rRNA expression was used as an internal control, and expressions of AGR2, CA9, GABRP, IFITM1 and MUC13 genes were normalization using the 18S rRNA expression level by a ΔΔCT method. The sequences of the primers used are as follows.
SK-OV-3 cell line was treated with a methylation inhibitor, 5-aza-2′-deoxycytidine (Sigma-Aldrich) at concentrations of 5 and 10 μM for 3 days, and then changes in AGR2, CA9, GABRP, IFITM1, and MUC13 gene expressions were measured by qRT-PCP.

[1] = SK-OV-3 cells treated at 5 and 10 μM for 3 days, qRT-PCR normalized to 18S rRNA

Nc1ncn([C@H]2C[C@H](O)[C@@H](CO)O2)c(=O)n1 [5-aza-2′-deoxycytidine]
increase in AGR2 gene expression [1]: about 2 fold | increase in CA9 gene expression [1]: about 3.4 fold | increase in GABRP gene expression [1]: about 1.8 fold | increase in IFITM1 gene expression [1]: about 1.7 fold | increase in MUC13 gene expression [1]: 17.8 fold | changes in expressions of the five genes (AGR2, CA9, GABRP, IFITM1, and MUC13) (SK-OV-3 cells, treatment for 3 days, result in words): increased expressions of the above genes were observed
